# Measured values as given in PMC6076925, “Identification of Digestive Enzyme Inhibitors from Ludwigia octovalvis (Jacq.) P.H.Raven” (Evidence-based Complementary and Alternative Medicine : eCAM, 2018).
# Assays:
# sucrase = target: sucrase; set-up: method as in doi:10.1016/j.foodchem.2010.03.075; details: rat; read-out: IC50 inhibition of sucrase; cited from earlier work
# α–glucosidases [1] = assay: α–glucosidase inhibition assay (crude intestinal enzyme, corn starch substrate); assay type: biochemical, Wistar rats; details: for IC50: pure compounds, intestinal rat enzyme, starch as substrate; for Inhibition percentage α–glucosidases: mean ± standard deviation
# Description: The α–glucosidase assay was previously reported. In brief, corn starch (4 mg/mL) was digested by crude enzyme at 37°C during 10 minutes in a phosphate buffer pH 7 solution at a sample concentration of 0.6 mg/mL (dissolved in DMSO and water). Subsequently, released glucose was quantified by a glucose oxidase-based clinical reagent with the GOD–POD Trinder kit (Spinreact, Girona, Spain) following manufacturer's directions. All tests were performed in quadruplicate. Crude enzyme was obtained directly from healthy Wistar rats (12 h fasting). The small intestine was flushed several times with ice-cold isotonic buffer pH 7 and after the scraping of the mucosa, it was homogenized and stored at -20°C. Animal care and management were carried out under the guidelines of Mexican Official Standard NOM–062–ZOO–1999.
# (§1) The logarithm of the concentration was plotted on the x-axis and the percentage of enzymatic inhibitory activity on the y-axis to obtain a semilogarithmic graphic.
# [2] = target: T1, lipase from porcine pancreas (Sus scrofa, UniProt P00591); assay: Pancreatic lipase inhibition assay (DMPTB/DTNB); assay type: biochemical; details: for inhibition at 250 µg/mL: sample at 0.25 mg/mL
# T1 construct: lipase from porcine pancreas (PPL type II, 100–500 units/mg, L3126); purchased Sigma–Aldrich L3126; host or cells: porcine pancreas
# T1 sequence (P00591 1-450): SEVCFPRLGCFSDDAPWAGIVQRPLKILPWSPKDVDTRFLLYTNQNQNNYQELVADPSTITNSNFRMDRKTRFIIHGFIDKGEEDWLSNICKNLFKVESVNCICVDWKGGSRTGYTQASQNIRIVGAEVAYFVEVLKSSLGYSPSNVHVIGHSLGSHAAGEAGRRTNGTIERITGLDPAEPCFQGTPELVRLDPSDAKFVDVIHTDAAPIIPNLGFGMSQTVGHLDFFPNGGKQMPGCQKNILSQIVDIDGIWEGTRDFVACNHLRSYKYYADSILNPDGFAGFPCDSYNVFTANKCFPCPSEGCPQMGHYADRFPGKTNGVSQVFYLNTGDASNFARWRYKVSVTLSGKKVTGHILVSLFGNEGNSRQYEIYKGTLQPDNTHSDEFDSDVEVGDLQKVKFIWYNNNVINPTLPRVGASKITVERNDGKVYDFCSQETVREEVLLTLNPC
# Description: Pancreatic lipase inhibition assay was previously reported. Briefly, the absorbance of a mixture of DTNB 0.2 mM, DMPTB 0.8 mM, NaCl 0.1M, CaCl2 2 mM, Triton X–100 0.04%, porcine lipase 65 μg/mL, and the sample (dissolved in DMSO and water) at 0.25 mg/mL was followed with a Thermo Scientific Genesys 20 Visible Spectrophotometer (Fisher Scientific, 4001000, Hampton, NH) at 412 nm every 20 s for five minutes and plotted (Excel, Microsoft) to obtain initial velocity value. The lipase was prepared as a stock at 10 mg/mL in Tris–HCl 25 mM pH 6.2 with 0.1 M NaCl, SDS 2 mM, and 250 μL/mL of glycerol. A control assay without substrate was carried out to discard nonspecific reactions with DTMB. All reactions were tested by triplicate.
# as §1
# α–glucosidases [3] = assay: Type of inhibition and Ki on α–glucosidases by Lineweaver–Burk plots (maltodextrin substrate); assay type: biochemical, Wistar rats; details: for Type of enzymatic inhibition of α–glucosidases: Lineweaver–Burk plots
# Description: (§2) The type of inhibition was determined quantifying the activity with and without inhibitor at different substrate concentrations (5–0.35 mg/mL for α–glucosidases and 0.05–0.2 μg/mL for pancreatic lipase) and comparing Lineweaver–Burk plots (inverse substrate concentration [S] and inverse reaction velocity V). In the case of the determination of α–glucosidase type of inhibition, the substrate was changed from corn starch to maltodextrin (MD100, Luzhou Bio–Chem Technology Co., Shandong, China), in order to have greater uniformity in the reaction.
# Michaelis–Menten constant (Km) and apparent Km (Km^app) were obtained analysing the Lineweaver–Burk plots. These values allowed to obtain the inhibition constant (Ki) for competitive inhibitors using (2), where [I] represents inhibitor concentration.(2) Km^app=Km1+I/Ki
# maltase = target: maltase; set-up: method as in doi:10.1016/j.foodchem.2010.03.075; details: rat; read-out: IC50 inhibition of maltase; cited from earlier work
# pancreatic lipase = target: T2, pancreatic lipase (Sus scrofa, UniProt P00591); assay: Type of inhibition on pancreatic lipase by Lineweaver–Burk plots; assay type: biochemical, porcine
# T2 construct: lipase from porcine pancreas (PPL type II, 100–500 units/mg, L3126); purchased Sigma–Aldrich L3126; host or cells: porcine pancreas
# T2 sequence (P00591 1-450): T1 sequence (P00591 1-450)
# Description: as §2
# [4] = mean ± standard deviation, read-out: Inhibition percentage Pancreatic lipase
Compound,IC50 (sucrase),IC50 (α–glucosidases [1]),Inhibition percentage α–glucosidases (α–glucosidases [1]; sample at 0.6 mg/mL),"inhibition at 250 µg/mL [2, 4]",Type of enzymatic inhibition of α–glucosidases (α–glucosidases [3]),Ki (α–glucosidases [3]; inhibitor at 625 μM),Ki (α–glucosidases [3]; inhibitor at 1250 μM),IC50 (maltase),further results
"CCOC(=O)c1cc(O)c(O)c(O)c1 [C1F1 (ethyl gallate), ethyl gallate]",660 µM,832 µM,98.4 ± 2.0%,23.2 ± 3%,competitive enzymatic inhibition,636 µM,315 µM,415 µM,
"O=c1cc(-c2ccc(O)c(O)c2)oc2cc(O)c([C@@H]3O[C@H](CO)[C@@H](O)[C@H](O)[C@H]3O)c(O)c12 [C4F4–P (isoorientin), isoorientin]",,,,55.1 ± 3.1%,,,,,IC50 ([2]; pure compound): 201 µM; Type of enzymatic inhibition of pancreatic lipase (pancreatic lipase): uncompetitive enzymatic inhibition
"O=c1cc(-c2ccc(O)c(O)c2)oc2cc(O)cc(O)c12 [Luteolin, reference compound]",,1260 µM,66.3 ± 5.6%,,,,,,IC50 (α–glucosidases [1]; listed as luteolin): ~1260 µM
"O=C(O)c1cc(O)c(O)c(O)c1 [C2F1 (gallic acid), gallic acid]",130 µM,969 µM,98.9 ± 0.6%,,competitive enzymatic inhibition,436 µM,208 µM,390 µM,
"C[C@H]1O[C@H](O[C@H]2[C@H](O)[C@@H](O)[C@@H](O[C@H]3[C@H](O)[C@@H](O)C(O)O[C@@H]3CO)O[C@@H]2CO)[C@H](O)[C@@H](O)[C@@H]1N[C@H]1C=C(CO)[C@@H](O)[C@H](O)[C@H]1O (some centres unmarked) [Acarbose, acarbose, reference compound]",,,,,,,,,Inhibition percentage α–glucosidases (α–glucosidases [1]; evaluated at 5.8 µM): 50.0 ± 1.6∗ %
"CCCCCCCCCCC[C@@H](C[C@@H]1OC(=O)[C@H]1CCCCCC)OC(=O)[C@H](CC(C)C)NC=O [Orlistat, orlistat, reference compound]",,,,,,,,,"inhibition at 1.6 µM ([2]; evaluated at 1.6 µM, mean ± standard deviation, read-out: Inhibition percentage Pancreatic lipase): 50 ± 2.6%"
